Data set [1] is described as follows: Solubility in 0.1 M phosphate buffer at pH 7. It counts as physicochemical. The conditions noted are these: 0.1 M phosphate buffer at pH 7, 10 mg/mL final peptide concentration, shaking 2 hours at room temperature, peptides as TFA-salts, measured sample pH 6.5-7.0.
Another data set has as its target T1, hGIPR (Homo sapiens, UniProt P48546).
T1 construct: expressed in transfected cells; host or cells: CHO CRE-luciferase reporter cells
T1 sequence (P48546 22-466): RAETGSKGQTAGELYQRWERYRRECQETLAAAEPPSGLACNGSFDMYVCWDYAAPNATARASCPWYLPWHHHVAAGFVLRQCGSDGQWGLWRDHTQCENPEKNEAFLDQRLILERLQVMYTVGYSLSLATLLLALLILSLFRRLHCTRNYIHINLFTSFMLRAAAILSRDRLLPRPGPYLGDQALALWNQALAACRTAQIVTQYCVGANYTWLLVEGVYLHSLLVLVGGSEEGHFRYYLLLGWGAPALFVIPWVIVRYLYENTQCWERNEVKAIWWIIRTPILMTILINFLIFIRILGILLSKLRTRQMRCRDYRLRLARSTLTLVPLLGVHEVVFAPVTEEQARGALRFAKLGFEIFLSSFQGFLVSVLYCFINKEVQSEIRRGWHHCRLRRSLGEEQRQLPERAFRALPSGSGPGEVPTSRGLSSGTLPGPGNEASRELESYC
In words: hGIPR CreLuc assay in 0.5% and 100% plasma (CHO CRE-luciferase reporter cells). It counts as cell-based. (Reporter assays use an easily measured gene product as a stand-in for the process of interest.)

Where [2] appears, read: 0.5% human plasma, read-out: hGIPR 0.5% hP.

SMILES strings stand for the structures. Like-named read-outs stand apart in the source and are kept apart here.

Broadly, the solubility is the dissolved amount per volume that the medium holds. With `CC[C@H](C)[C@H](NC(=O)[C@H](CC(C)C)NC(=O)[C@H](Cc1c[nH]cn1)NC(=O)[C@H](CCCNC(=N)N)NC(=O)[C@@H](NC(=O)[C@H](Cc1ccccc1)NC(=O)[C@H](C)NC(=O)C(C)(C)NC(=O)[C@H](CCC(N)=O)NC(=O)[C@H](C)NC(=O)[C@H](CCC(N)=O)NC(=O)[C@H](CCC(=O)O)NC(=O)[C@H](CCC(=O)O)NC(=O)[C@H](CC(C)C)NC(=O)C(C)(C)NC(=O)[C@@H](NC(=O)[C@H](CO)NC(=O)[C@H](Cc1ccc(O)cc1)NC(=O)[C@H](CC(=O)O)NC(=O)[C@H](CO)NC(=O)[C@@H](NC(=O)[C@H](Cc1ccccc1)NC(=O)[C@@H](NC(=O)CNC(=O)[C@H](CCC(=O)O)NC(=O)C(C)(C)NC(=O)[C@@H](N)Cc1ccc(O)cc1)[C@@H](C)O)[C@@H](C)O)[C@@H](C)CC)C(C)C)C(=O)N[C@@H](CC(N)=O)C(=O)N[C@@H](CCCCNC(=O)CC[C@H](NC(=O)CC[C@H](NC(=O)CC[C@H](NC(=O)CC[C@H](NC(=O)CC[C@H](NC(=O)CCCCCCCCCCCCCCCCC(=O)O)C(=O)O)C(=O)O)C(=O)O)C(=O)O)C(=O)O)C(=O)NC(C)(C)C(=O)N[C@H](C(=O)N[C@@H](CCCNC(=N)N)C(=O)N[C@@H](CCC(N)=O)C(=O)N[C@@H](CCCNC(=N)N)C(=O)N[C@@H](Cc1ccc(O)cc1)C(N)=O)[C@@H](C)O` [Compound 75, Y-Aib-E-G-T-F-T-S-D-Y-S-I-Aib-L-E-E-Q-A-Q-Aib-A-F-V-R-H-L-I-N-K(1,3)-Aib-T-R-Q-R-Y-NH2.C18DA-gGlu-gGlu-gGlu-gGlu-gGlu(1,2)], in data set [1], the solubility at 2 h came out at 4300 µg/mL. Moreover, the EC50 at hGIPR (setting [2]) is 0.3 nM.
Taken in the same sequence, the figures for `CC[C@H](C)[C@H](NC(=O)[C@H](CC(C)C)NC(=O)[C@H](Cc1c[nH]cn1)NC(=O)[C@H](CCCNC(=N)N)NC(=O)[C@@H](NC(=O)[C@H](Cc1ccccc1)NC(=O)[C@H](C)NC(=O)C(C)(C)NC(=O)[C@H](Cc1ccc(O)cc1)NC(=O)[C@H](C)NC(=O)[C@H](CCC(N)=O)NC(=O)[C@H](CCCCN)NC(=O)[C@H](CCC(=O)O)NC(=O)[C@H](CC(C)C)NC(=O)C(C)(C)NC(=O)[C@@H](NC(=O)[C@H](CO)NC(=O)[C@H](Cc1ccc(O)cc1)NC(=O)[C@H](CC(=O)O)NC(=O)[C@H](CO)NC(=O)[C@@H](NC(=O)[C@H](Cc1ccccc1)NC(=O)[C@@H](NC(=O)CNC(=O)[C@H](CCC(=O)O)NC(=O)C(C)(C)NC(=O)[C@@H](N)Cc1ccc(O)cc1)[C@@H](C)O)[C@@H](C)O)[C@@H](C)CC)C(C)C)C(=O)N[C@@H](CC(N)=O)C(=O)N[C@@H](CCCCNC(=O)[C@@H](N)CCCCNC(=O)CC[C@H](NC(=O)CC[C@H](NC(=O)CC[C@H](NC(=O)CC[C@H](NC(=O)CC[C@H](NC(=O)CC[C@H](NC(=O)CCCCCCCCCCCCCCCCC(=O)O)C(=O)O)C(=O)O)C(=O)O)C(=O)O)C(=O)O)C(=O)O)C(=O)NC(C)(C)C(=O)N[C@H](C(=O)N[C@@H](CCCNC(=N)N)C(=O)N[C@@H](CCC(N)=O)C(=O)N[C@@H](CCCNC(=N)N)C(=O)N[C@@H](Cc1ccc(O)cc1)C(N)=O)[C@@H](C)O` [Compound 84, Y-Aib-E-G-T-F-T-S-D-Y-S-I-Aib-L-E-K-Q-A-Y-Aib-A-F-V-R-H-L-I-N-K(1,3)-Aib-T-R-Q-R-Y-NH2.C18DA-gGlu-gGlu-gGlu-gGlu-gGlu-gGlu-eLys(1,2)] were 4100 µg/mL and 5 nM.
With `CC[C@H](C)[C@H](NC(=O)[C@H](CC(C)C)NC(=O)[C@H](Cc1c[nH]cn1)NC(=O)[C@H](CCCNC(=N)N)NC(=O)[C@@H](NC(=O)[C@H](Cc1ccccc1)NC(=O)[C@H](C)NC(=O)C(C)(C)NC(=O)[C@H](CCC(N)=O)NC(=O)[C@H](CCCNC(=N)N)NC(=O)[C@H](CCC(N)=O)NC(=O)[C@H](CCCCN)NC(=O)[C@H](CCC(=O)O)NC(=O)[C@H](CC(C)C)NC(=O)C(C)(C)NC(=O)[C@@H](NC(=O)[C@H](CO)NC(=O)[C@H](Cc1ccc(O)cc1)NC(=O)[C@H](CC(=O)O)NC(=O)[C@H](CO)NC(=O)[C@@H](NC(=O)[C@H](Cc1ccccc1)NC(=O)[C@@H](NC(=O)CNC(=O)[C@H](CCC(=O)O)NC(=O)C(C)(C)NC(=O)[C@@H](N)Cc1ccc(O)cc1)[C@@H](C)O)[C@@H](C)O)[C@@H](C)CC)C(C)C)C(=O)N[C@@H](CC(N)=O)C(=O)N[C@@H](CCCCNC(=O)[C@@H](N)CCCCNC(=O)CC[C@H](NC(=O)CC[C@H](NC(=O)CC[C@H](NC(=O)CC[C@H](NC(=O)CC[C@H](NC(=O)CC[C@H](NC(=O)CCCCCCCCCCCCCCCCC(=O)O)C(=O)O)C(=O)O)C(=O)O)C(=O)O)C(=O)O)C(=O)O)C(=O)NC(C)(C)C(=O)N[C@H](C(=O)N[C@@H](CCCNC(=N)N)C(=O)N[C@@H](CCC(N)=O)C(=O)N[C@@H](CCCNC(=N)N)C(=O)N[C@@H](Cc1ccc(O)cc1)C(N)=O)[C@@H](C)O` [Compound 91, Y-Aib-E-G-T-F-T-S-D-Y-S-I-Aib-L-E-K-Q-R-Q-Aib-A-F-V-R-H-L-I-N-K(1,3)-Aib-T-R-Q-R-Y-NH2.C18DA-gGlu-gGlu-gGlu-gGlu-gGlu-Glu-eLys(1,2)], the solubility in data set [1] (read-out: Solubility) came to 2200 µg/mL. For the same compound, the EC50 on hGIPR (setting [2]) is 0.8 nM; at hGIPR (100% human plasma, read-out: hGIPR 100% hP), 14.4 nM.
Regarding `CC[C@H](C)[C@H](NC(=O)[C@H](CC(C)C)NC(=O)[C@H](Cc1c[nH]cn1)NC(=O)[C@H](CCCNC(=N)N)NC(=O)[C@@H](NC(=O)[C@H](Cc1ccccc1)NC(=O)[C@H](C)NC(=O)C(C)(C)NC(=O)[C@H](CCC(N)=O)NC(=O)[C@H](C)NC(=O)[C@H](CCC(N)=O)NC(=O)[C@H](CCCCN)NC(=O)[C@H](CCC(=O)O)NC(=O)[C@H](CC(C)C)NC(=O)C(C)(C)NC(=O)[C@@H](NC(=O)[C@H](CO)NC(=O)[C@H](Cc1ccc(O)cc1)NC(=O)[C@H](CC(=O)O)NC(=O)[C@H](CO)NC(=O)[C@@H](NC(=O)[C@H](Cc1ccccc1)NC(=O)[C@@H](NC(=O)CNC(=O)[C@H](CCC(=O)O)NC(=O)C(C)(C)NC(=O)[C@@H](N)Cc1ccc(O)cc1)[C@@H](C)O)[C@@H](C)O)[C@@H](C)CC)C(C)C)C(=O)N[C@@H](CC(N)=O)C(=O)N[C@@H](CCCCNC(=O)CC[C@H](NC(=O)[C@@H](N)CCCCNC(=O)CC[C@H](NC(=O)CC[C@H](NC(=O)CC[C@H](NC(=O)CC[C@H](NC(=O)CC[C@H](NC(=O)CCCCCCCCCCCCCCCCCCC(=O)O)C(=O)O)C(=O)O)C(=O)O)C(=O)O)C(=O)O)C(=O)O)C(=O)NC(C)(C)C(=O)N[C@H](C(=O)N[C@@H](CCCNC(=N)N)C(=O)N[C@@H](CCC(N)=O)C(=O)N[C@@H](CCCNC(=N)N)C(=O)N[C@@H](Cc1ccc(O)cc1)C(N)=O)[C@@H](C)O` [Compound 94, Y-Aib-E-G-T-F-T-S-D-Y-S-I-Aib-L-E-K-Q-A-Q-Aib-A-F-V-R-H-L-I-N-K(1,3)-Aib-T-R-Q-R-Y-NH2.C20DA-gGlu-gGlu-gGlu-gGlu-gGlu-eLys-gGlu(1,2)], in data set [1], the solubility at 2 h came to 9000 µg/mL. The EC50 at hGIPR (setting [2]) amounted to 0.3 nM.
On the same counts, the results for `CC[C@H](C)[C@H](NC(=O)[C@H](CC(C)C)NC(=O)[C@H](Cc1c[nH]cn1)NC(=O)[C@H](CCCNC(=N)N)NC(=O)[C@@H](NC(=O)[C@H](Cc1ccccc1)NC(=O)[C@H](C)NC(=O)C(C)(C)NC(=O)[C@H](CCC(N)=O)NC(=O)[C@H](C)NC(=O)[C@H](CCC(N)=O)NC(=O)[C@H](C)NC(=O)[C@H](CCC(=O)O)NC(=O)[C@H](CC(C)C)NC(=O)C(C)(C)NC(=O)[C@@H](NC(=O)[C@H](CO)NC(=O)[C@H](Cc1ccc(O)cc1)NC(=O)[C@H](CC(=O)O)NC(=O)[C@H](CO)NC(=O)[C@@H](NC(=O)[C@H](Cc1ccccc1)NC(=O)[C@@H](NC(=O)CNC(=O)[C@H](CCC(=O)O)NC(=O)C(C)(C)NC(=O)[C@@H](N)Cc1ccc(O)cc1)[C@@H](C)O)[C@@H](C)O)[C@@H](C)CC)C(C)C)C(=O)N[C@@H](CC(N)=O)C(=O)N[C@@H](CCCCNC(=O)[C@@H](N)CCCCNC(=O)CC[C@H](NC(=O)CC[C@H](NC(=O)CC[C@H](NC(=O)CC[C@H](NC(=O)CC[C@H](NC(=O)CC[C@H](NC(=O)CCCCCCCCCCCCCCCCC(=O)O)C(=O)O)C(=O)O)C(=O)O)C(=O)O)C(=O)O)C(=O)O)C(=O)NC(C)(C)C(=O)N[C@H](C(=O)N[C@@H](CCCNC(=N)N)C(=O)N[C@@H](CCC(N)=O)C(=O)N[C@@H](CCCNC(=N)N)C(=O)N[C@@H](Cc1ccc(O)cc1)C(N)=O)[C@@H](C)O` [Compound 123, Y-Aib-E-G-T-F-T-S-D-Y-S-I-Aib-L-E-A-Q-A-Q-Aib-A-F-V-R-H-L-I-N-K(1,3)-Aib-T-R-Q-R-Y-NH2.C18DA-gGlu-gGlu-gGlu-gGlu-gGlu-gGlu-eLys(1,2)] are 4300 µg/mL and 0.3 nM.

Source of the values: US20250382344A1, “Soluble GLP1/GIP/NPY2 Receptor Triple Agonists” (Boehringer Ingelheim International GmH, priority 2024, published 2025).
